Data published in patent publication US12077503B2, “Substituted cyclic amides and their use as herbicides” (FMC CORPORATION, priority 2015, dated 2024).

Tests used:
Format in all cases: in vivo
[1] = system: ryegrass, Italian (Italian ryegrass, Lolium multiflorum); experiment: Test A preemergence; conditions: Lolium multiflorum, pre-emergence, 240 h, Preemergence
In short: (§1)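 Seeded soil received test chemicals as a preemergence directed spray, and seedlings at one to two leaves, 2–10 cm tall, received them postemergence, in a non-phytotoxic, surfactant-containing solvent mixture. Pots were held in a greenhouse for approximately 10 d, then rated for injury from 0, no effect, to 100, complete control.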

[2] = system: giant foxtail (Setaria faberii); experiment: Test A preemergence; conditions: Setaria faberi, pre-emergence, 240 h, Preemergence
In short: as §1

[3] = system: ragweed (common ragweed, Ambrosia elatior); experiment: Test A preemergence; conditions: Ambrosia artemisiifolia, pre-emergence, 240 h, Preemergence
In short: as §1

[4] = system: Kochia (Kochia scoparia); experiment: Test A preemergence; conditions: Bassia scoparia, pre-emergence, 240 h, Preemergence
In short: as §1

[5] = system: barnyardgrass (Echinochloa crus-galli); experiment: Test A preemergence; conditions: Echinochloa crus-galli, pre-emergence, 240 h, Preemergence
In short: as §1

[6] = system: pigweed (Amaranthus retroflexus); experiment: Test A preemergence; conditions: Amaranthus retroflexus, pre-emergence, 240 h, Preemergence
[7] = system: ryegrass, Italian (Italian ryegrass, Lolium multiflorum); experiment: Test A postemergence; conditions: Lolium multiflorum, post-emergence, 240 h, Postemergence, read-out: Plant response rating, Ryegrass, Italian
In short: as §1

[8] = system: Galium (catchweed bedstraw, Galium aparine); experiment: Test A postemergence; conditions: Galium, post-emergence, 240 h, Postemergence, read-out: Plant response rating, Galium
In short: as §1

[9] = system: corn (Zea mays); experiment: Test A postemergence; conditions: Zea mays, post-emergence, 240 h, Postemergence
In short: as §1

[10] = system: giant foxtail (Setaria faberii); experiment: Test A postemergence; conditions: Setaria faberi, post-emergence, 240 h, Postemergence, read-out: Plant response rating, Foxtail, Giant
In short: as §1

[11] = system: wheat (Triticum aestivum); experiment: Test A postemergence; conditions: Triticum aestivum, post-emergence, 240 h, Postemergence, read-out: Plant response rating, Wheat
In short: as §1

[12] = system: ragweed (common ragweed, Ambrosia elatior); experiment: Test A postemergence; conditions: Ambrosia artemisiifolia, post-emergence, 240 h, Postemergence, read-out: Plant response rating, Ragweed
In short: as §1

[13] = system: Kochia (Kochia scoparia); experiment: Test A postemergence; conditions: Bassia scoparia, post-emergence, 240 h, Postemergence, read-out: Plant response rating, Kochia
In short: as §1

[14] = system: blackgrass (Alopecurus myosuroides); experiment: Test A postemergence; conditions: Alopecurus myosuroides, post-emergence, 240 h, Postemergence, read-out: Plant response rating, Blackgrass
In short: as §1

[15] = system: barnyardgrass (Echinochloa crus-galli); experiment: Test A postemergence; conditions: Echinochloa crus-galli, post-emergence, 240 h, Postemergence, read-out: Plant response rating, Barnyardgrass
In short: as §1

[16] = system: pigweed (Amaranthus retroflexus); experiment: Test A postemergence; conditions: Amaranthus retroflexus, post-emergence, 240 h, Postemergence, read-out: Plant response rating, Pigweed
In short: as §1

[17] = system: ducksalad (Heteranthera limosa); experiment: Test B flooded paddy test; conditions: Heteranthera limosa, 250 g ai/ha, Flood; 0 to 100 scale where 0 is no effect and 100 is complete control; read-out: Ducksalad plant response rating
In short: (§2)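 2-leaf plants; pots flooded 3 cm over soil; cpd added to paddy water; depth held; greenhouse 13–15 d; visual rating vs controls, 0 = no effect, 100 = complete control.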

[18] = system: sedge, umbrella (small-flower umbrella sedge, Cyperus difformis); experiment: Test B flooded paddy test; conditions: Cyperus difformis, 250 g ai/ha, Flood; 0 to 100 scale where 0 is no effect and 100 is complete control; read-out: Sedge, Umbrella plant response rating
In short: as §2

[19] = system: rice (Oryra sativa); experiment: Test B flooded paddy test; conditions: Oryza sativa, 250 g ai/ha, Flood; 0 to 100 scale where 0 is no effect and 100 is complete control; read-out: Rice plant response rating
In short: as §2

[20] = system: barnyardgrass (Echinochloa crus-galli); experiment: Test B flooded paddy test; conditions: Echinochloa crus-galli, 250 g ai/ha, Flood; 0 to 100 scale where 0 is no effect and 100 is complete control; read-out: Barnyardgrass plant response rating
In short: as §2

[21] = 125 g ai/ha, visual injury after approximately 10 d, 0 to 100 scale where 0 is no effect and 100 is complete control
[22] = 31 g ai/ha, visual injury after approx. 10 d, 0 to 100 scale, 0 no effect, 100 complete control

What does the source list for `CN1CC[C@H](c2ccccc2C(F)(F)F)[C@@H](C(=O)Nc2ccccc2C(F)(F)F)C1=O` [Compound 1008]?
pest or weed control at 31 g/ha ([1]; 31 g ai/ha, 0 to 100 scale where 0 is no effect and 100 is complete control, read-out: Ryegrass, Italian plant response rating): 0%; pest or weed control at 125 g/ha ([1]; 125 g ai/ha, visual injury rating after approximately 10 d, read-out: Ryegrass, Italian plant response rating (0 to 100 scale, 0 is no effect, 100 is complete control)): 0%; pest or weed control at 125 g/ha ([2]; 125 g ai/ha, visual injury rating after approximately 10 d, read-out: Foxtail, Giant plant response rating (0 to 100 scale, 0 is no effect, 100 is complete control)): 0%; pest or weed control at 31 g/ha ([2]; 31 g ai/ha, 0 to 100 scale (0 no effect, 100 complete control), read-out: Plant response rating, Foxtail, Giant): 0%; pest or weed control at 31 g/ha ([3]; 31 g ai/ha, 0 to 100 scale where 0 is no effect and 100 is complete control, read-out: Ragweed plant response rating): 0%; pest or weed control at 125 g/ha ([3]; 125 g ai/ha, visual injury rating after approximately 10 d, read-out: Ragweed plant response rating (0 to 100 scale, 0 is no effect, 100 is complete control)): 0%; pest or weed control at 31 g/ha ([4]; 31 g ai/ha, 0 to 100 scale where 0 is no effect and 100 is complete control, read-out: Kochia plant response rating): 0%; pest or weed control at 125 g/ha ([4]; 125 g ai/ha, visual injury rating after approximately 10 d, read-out: Kochia plant response rating (0 to 100 scale, 0 is no effect, 100 is complete control)): 0%; pest or weed control at 125 g/ha ([5]; 125 g ai/ha, visual injury rating after approximately 10 d, read-out: Barnyardgrass plant response rating (0 to 100 scale, 0 is no effect, 100 is complete control)): 0%; pest or weed control at 31 g/ha ([5]; 31 g ai/ha, 0 to 100 scale (0 no effect, 100 complete control), read-out: Plant response rating, Barnyardgrass): 0%; pest or weed control at 31 g/ha ([6]; 31 g ai/ha, 0 to 100 scale where 0 is no effect and 100 is complete control, read-out: Pigweed plant response rating): 0%; pest or weed control at 125 g/ha ([6]; 125 g ai/ha, visual injury rating after approximately 10 d, read-out: Pigweed plant response rating (0 to 100 scale, 0 is no effect, 100 is complete control)): 0%; pest or weed control at 125 g/ha [7, 21]: 0%; pest or weed control at 31 g/ha [7, 22]: 0%; pest or weed control at 125 g/ha [8, 21]: 0%; pest or weed control at 31 g/ha [8, 22]: 0%; Corn plant response rating (crop injury, 0 = no effect, 100 = complete kill) at 125 g/ha [9, 21]: 0%; Corn plant response rating (crop injury, 0 = no effect, 100 = complete kill) at 31 g/ha [9, 22]: 0%; pest or weed control at 125 g/ha [10, 21]: 0%; pest or weed control at 31 g/ha [10, 22]: 0%; plant injury at 125 g/ha [11, 21]: 0%; plant injury at 31 g/ha [11, 22]: 0%; pest or weed control at 125 g/ha [12, 21]: 0%; pest or weed control at 31 g/ha [12, 22]: 0%; pest or weed control at 125 g/ha [13, 21]: 0%; pest or weed control at 31 g/ha [13, 22]: 0%; pest or weed control at 125 g/ha [14, 21]: 0%; pest or weed control at 31 g/ha [14, 22]: 0%; pest or weed control at 125 g/ha [15, 21]: 0%; pest or weed control at 31 g/ha [15, 22]: 0%; pest or weed control at 125 g/ha [16, 21]: 0%; pest or weed control at 31 g/ha [16, 22]: 0%; pest or weed control at 250 g/ha [17]: 95%; pest or weed control at 250 g/ha [18]: 0%; pest or weed control at 250 g/ha [19]: 0%; pest or weed control at 250 g/ha [20]: 0%
